Measurements from publication PMC6097915 (ACS chemical biology, 2018).
In brackets after ≈: the same amount, converted by molar mass. Ends that are not written are not given here.

System: WT MG1655 E. coli
Format: cell-based
Settings: 6-hr period, aerated EZRDM medium, 30°C, by OD, successive two-fold dilutions in 96 well plates

Row | Compound | MIC (minimum inhibitory concentration) [µM]
1 | KWKLFKKIEKVGQNIRDGII-KAGPAVAVVGQATQIAK-NH2 [Cecropin A] | 0.9
2 | CC[C@H](C)[C@H](NC(=O)[C@H](CCCCN)NC(=O)[C@H](CCC(=O)O)NC(=O)[C@H](CCCCN)NC(=O)[C@H](CO)NC(=O)[C@H](CCCCN)NC(=O)[C@H](CCCNC(=N)N)NC(=O)[C@H](Cc1ccccc1)NC(=O)[C@H](Cc1ccccc1)NC(=O)[C@H](CC(=O)O)NC(=O)CNC(=O)[C@H](CC(C)C)NC(=O)[C@@H](N)CC(C)C)C(=O)NCC(=O)N[C@@H](CCCCN)C(=O)N[C@@H](CCC(=O)O)C(=O)N[C@@H](Cc1ccccc1)C(=O)N[C@@H](CCCCN)C(=O)N[C@@H](CCCNC(=N)N)C(=O)N[C@H](C(=O)N[C@H](C(=O)N[C@@H](CCC(N)=O)C(=O)N[C@@H](CCCNC(=N)N)C(=O)N[C@H](C(=O)N[C@@H](CCCCN)C(=O)N[C@@H](CC(=O)O)C(=O)N[C@@H](Cc1ccccc1)C(=O)N[C@@H](CC(C)C)C(=O)N[C@@H](CCCNC(=N)N)C(=O)N[C@@H](CC(N)=O)C(=O)N[C@@H](CC(C)C)C(=O)N[C@H](C(=O)N1CCC[C@H]1C(=O)N[C@@H](CCCNC(=N)N)C(=O)N[C@H](C(=O)N[C@@H](CCC(=O)O)C(=O)N[C@@H](CO)C(=O)O)[C@@H](C)O)C(C)C)[C@@H](C)CC)C(C)C)[C@@H](C)CC [LL-37] | 4 (≈ 18 µg/mL)
3 | KWKLFKKIGAVLKVL-NH2 [CM15] | 5
